Reference: ChEMBL document CHEMBL1145332, “Design of inhibitors of orotidine monophosphate decarboxylase using bioisosteric replacement and determination of inhibition kinetics” (J Med Chem, 2006)

Target: T1, Orotidine 5'-phosphate decarboxylase (Saccharomyces cerevisiae S288c, UniProt P03962)
T1 sequence (P03962 whole entry): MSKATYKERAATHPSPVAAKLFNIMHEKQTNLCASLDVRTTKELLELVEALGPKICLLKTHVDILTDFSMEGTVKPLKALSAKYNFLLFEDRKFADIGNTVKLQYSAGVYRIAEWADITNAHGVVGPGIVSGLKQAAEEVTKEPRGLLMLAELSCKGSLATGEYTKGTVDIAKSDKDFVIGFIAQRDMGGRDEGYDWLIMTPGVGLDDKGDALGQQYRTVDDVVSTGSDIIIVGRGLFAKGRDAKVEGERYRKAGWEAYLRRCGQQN
Assay: Inhibition of Saccharomyces cerevisiae ODCase at 25 degreeC by competitive binding assay

Ki: 64 nM
Compound: O=c1cnn([C@@H]2O[C@H](COP(=O)(O)O)[C@@H](O)[C@H]2O)c(=O)[nH]1 [6-AZA-URIDINE MONOPHOSPHATE]
